Measurements: patent publication US8729115B2 (Cardiolynx AG, priority 2010, dated 2014)
Where two headings read alike, the source gives them in different places.

What was measured:
[1] = system: isolated rat cardiac mitochondria; assay: ROS/RONS formation in isolated mitochondria (L-012 chemiluminescence)
From the text: Reactive oxygen and nitrogen species formation in response to in vitro challenge of isolated rat cardiac mitochondria based on reaction of the chemiluminescence dye L-012 (a luminal analogue), Example 4, Table 2. X-axis: compounds tested with concentration [μM]; y-axis: photons n per 30 sec of emission of chemiluminescence light (ECL).
Vascular oxidative stress is a well-known side effect of nitrate tolerance (an adverse condition that develops under chronic nitrate therapy). Therefore, the induction of reactive oxygen and nitrogen species formation in response to in vitro challenges with the test compounds was assessed in isolated mitochondria according to a published procedure [Daiber, A. et al., Mol Pharmacol 66 (2004), 1372-1382; Daiber, A. et al., Biochem Biophys Res Commun 338 (2005), 1865-1874; Daiber, A. et al., Mol Pharmacol 68 (2005), 579-588]. The assay is based on the reaction of the chemiluminescence dye L-012 (a luminol analogue) with reactive oxygen and nitrogen species (RONS, e.g. superoxide anion radicals, peroxynitrite anions or nitrogen dioxide radicals) and subsequent emission of chemiluminescence light (ECL). The signal is counted in photons/time (=counts/30 s). The data are based on experiments with cardiac mitochondria from at least 6 rats on 3 different days.

rat aortic ring segments = assay: Isometric tension: vasodilation of rat aortic ring segments preconstricted with phenylephrine; assay type: cell-based; settings: for EC50 / pD2-value (vasodilatory potency): concentration-relaxation curve; for EC50 / Vasodilatory potency (in words) / pD2-value (vasodilatory potency): phenylephrine-preconstricted rat aorta; for EC50: read-out: pD2-value (vasodilatory potency) (converted)
Experimental: Vasodilation of rat aortic ring segments preconstricted with phenylephrine, Example 3, Table 1. […].
After reaching a stable preconstriction of vascular tone, the vessels were dose-dependently vasodilated until the final tone at the highest added concentration of the vasodilator was reached. The vasodilators were added at half-logarithmic concentrations starting at 10^−8 M (=10 nanomolar). Vasodilatory potency was compared creating a concentration-relaxation curve. The data are based on experiments with aorta from at least 6 rats on 3 different days.

Wistar rats = assay: Endothelial dysfunction, in vivo tolerance and cross-tolerance after 7 days treatment; set-up: species or system rat
Experimental: To assess the tendency of a given organic nitrate to induce in vivo tolerance and endothelial dysfunction, Wistar rats were treated for 7 days with placebo (solvent alone) or 3 increasing doses of the organic nitrate. […] Vascular function was assessed by isometric tension studies as described above. Acetylcholine (ACh) is an endothelium-dependent vasodilator whereas organic nitrates (e.g. compound 1 or nitroglycerin) are endothelium-independent vasodilators. Endothelial dysfunction will result in impaired ACh-dependent relaxation whereas nitrate tolerance and/or vascular dysfunction causes impaired compound 1 dependent or nitroglycerin dependent vasodilation.

Beagle dogs = assay: Effects on blood pressure in Beagle dogs; assay type: in vivo, dog
Experimental: Each group was administered three ascending doses separated by 4 wash out days providing 9 different treatments as shown in the following table:
The liquid was administered per gavage. […] The capsule was administered orally.
In this group the liquid was administered intravenously as a slow bolus injection.
Blood pressure was assessed for all treatments before dosing and 1, 2, 3, 4, 5, 6, 8, 12 and 24 h after dosing.

[2] = 10-1000 μM, isolated mitochondria

| Molecule | Effect on RONS signal / in vitro oxidative stress (in words) [1, 2] | ROS formation, Mean (ECL signal) ([1]; Conc. 10 μM) [counts/30 s] | ROS formation, Mean (ECL signal) ([1]; Conc. 100 μM) [counts/30 s] | ROS formation, Mean (ECL signal) ([1]; Conc. 1000 μM) [counts/30 s] | Isometric tension, relaxation (Mean ± SEM) (rat aortic ring segments; Log [M] −3) [%] | Isometric tension, relaxation (Mean ± SEM) (rat aortic ring segments; Log [M] −3.5) [%] | Isometric tension, relaxation (Mean ± SEM) (rat aortic ring segments; Log [M] −4) [%] | Isometric tension, relaxation (Mean ± SEM) (rat aortic ring segments; Log [M] −4.5) [%] | Isometric tension, relaxation (Mean ± SEM) (rat aortic ring segments; Log [M] −5) [%] | Isometric tension, relaxation (Mean ± SEM) (rat aortic ring segments; Log [M] −5.5) [%] | Isometric tension, relaxation (Mean ± SEM) (rat aortic ring segments; Log [M] −6) [%] | Isometric tension, relaxation (Mean ± SEM) (rat aortic ring segments; Log [M] −6.5) [%] | Isometric tension, relaxation (Mean ± SEM) (rat aortic ring segments; Log [M] −7) [%] | Isometric tension, relaxation (Mean ± SEM) (rat aortic ring segments; Log [M] −7.5) [%] | EC50 (rat aortic ring segments) [µM] | Vasodilatory potency (in words) (rat aortic ring segments) | ROS formation, Mean (ECL signal) ([1]; rat, 10 μM) [counts/30 s] | ROS formation, Mean (ECL signal) ([1]; rat, 100 μM) [counts/30 s] | ROS formation, Mean (ECL signal) ([1]; rat, 1000 μM) [counts/30 s] | pD2-value (vasodilatory potency) (rat aortic ring segments) | further results |
| --- | --- | --- | --- | --- | --- | --- | --- | --- | --- | --- | --- | --- | --- | --- | --- | --- | --- | --- | --- | --- | --- |
| O=[N+]([O-])O[C@H]1CO[C@H]2[C@@H]1OC[C@H]2O[N+](=O)[O-] [ISDN, Isosorbide dinitrate] | increases the RONS signal in a concentration-dependent fashion, although only slightly | 5718.33 | 6608.83 | 8744.83 |  |  |  |  |  |  |  |  |  |  |  |  |  |  |  |  |  |
| CNCCCCO[N+](=O)[O-].O=[N+]([O-])O [MNBAN, N-Methyl-N-(4-nitroxybutyl)ammonium nitrate] |  |  |  |  | 95.84 ± 2.26 | 88.56 ± 2.69 | 74.46 ± 4.13 | 50.81 ± 6.88 | 30.56 ± 7.29 | 14.85 ± 5.75 | 8.33 ± 4.85 | 5.04 ± 3.29 | 3.24 ± 2.80 | 1.72 ± 1.50 | ~31.6 | intermediate vasodilatory potency |  |  |  |  | Effect on RONS signal / in vitro oxidative stress (in words) [1]: somewhat more pronounced effects on RONS formation |
| CCCCC(=O)N(Cc1ccc(-c2ccccc2-c2nnn[nH]2)cc1)C(C(=O)N(C)CCCCO[N+](=O)[O-])C(C)C [compound 2, (2R)-3-Methyl-2-(N-((2′-(1H-tetrazol-5-yl)biphenyl-4-yl)methyl)pentanamido)-butanoyl N-methyl-N-4-nitroxybutyl-amide] |  |  |  |  |  | 50.40 ± 7.89 | 31.38 ± 6.92 | 13.69 ± 3.68 | 8.61 ± 2.77 | 8.56 ± 2.18 | 7.43 ± 1.86 | 6.06 ± 1.69 | 4.61 ± 1.19 | 2.45 ± 0.93 | < 100 |  | 9007.83 | 4532.33 | 4386.00 |  |  |
| O=[N+]([O-])OCCCCO [HBN, 1-Hydroxy-4-butyl nitrate] | somewhat more pronounced effects on RONS formation | 5116.17 | 3005.75 | 10472.33 | 95.71 ± 1.27 | 95.69 ± 2.40 | 77.74 ± 3.73 | 55.15 ± 5.33 | 34.50 ± 4.63 | 15.21 ± 4.71 | 7.11 ± 2.87 | 3.24 ± 2.77 | 1.42 ± 2.55 | 1.84 ± 1.72 |  | intermediate vasodilatory potency |  |  |  | approximately 4.5 |  |
| CCCCC(=O)N(Cc1ccc(-c2ccccc2-c2nnn[nH]2)cc1)[C@H](C(=O)O)C(C)C [compound 3, Valsartan] |  |  |  |  |  | 21.98 ± 3.75 | 9.43 ± 2.03 | 4.94 ± 2.65 | 0.29 ± 2.56 | −0.58 ± 3.84 | 1.05 ± 3.85 | 0.87 ± 2.97 | 1.64 ± 3.06 | 4.25 ± 2.13 | < 1000 | weak relaxing effects | 2971.58 | 2871.29 | 9878.96 |  |  |
| (2R)-3-Methyl-2-(N-((2′-(1-(2″-nitroxyethylaminocarbonyloxymethyl)-1H-tetrazol-5-yl)biphenyl-4-yl)methyl)pentanamido)butanoyl N-methyl-N-4-nitroxybutyl-amide 1A and the corresponding 2-(2″-nitroxyethylaminocarbonyloxymethyl)-2H-tetrazol-5-yl isomer 1B [compound 1] |  | 6820.33 | 4534.00 | 5088.33 |  | 91.52 ± 3.83 | 88.20 ± 5.11 | 81.43 ± 6.54 | 59.97 ± 6.28 | 43.47 ± 5.88 | 27.39 ± 4.09 | 14.66 ± 2.59 | 8.52 ± 1.64 | 4.64 ± 0.93 |  |  |  |  |  | approximately 5.5 | Adverse effects on endothelial or vascular function, in vivo tolerance or cross tolerance (Wistar rats; low and middle dose): did not show any significant adverse effects on endothelial or vascular function; Toxic effects (Wistar rats; up to the highest dose): not show any toxic effects; Effect on RONS signal / in vitro oxidative stress (in words) ([1]; 10-1000 μM, isolated mitochondria, listed as dinitrate 1): RONS signal is suppressed at higher concentrations; Effect on RONS signal / in vitro oxidative stress (in words) ([1]; 10-1000 μM, isolated mitochondria, listed as valsartan dinitrate 1): does not induce in vitro oxidative stress in isolated mitochondria; Vasodilatory potency (in words) (rat aortic ring segments; listed as Valsartan dinitrate 1): as potent as isosorbide dinitrate; Vasodilatory potency (in words) (rat aortic ring segments; listed as valsartan dinitrate 1): as active as isosorbide dinitrate; Blood pressure lowering effect (in words) (Beagle dogs; gavage, oral capsule or intravenous, ascending doses): two sequential lowerings of blood pressure; Duration of effect on blood pressure (Beagle dogs; overall): at least 10 hours; Blood pressure lowering observed up to (Beagle dogs; several animals): up to 24 hours |
